Results published in article PMC4792735 (Clinical pharmacokinetics, 2016).
“And” between values parts separate entries of the source, which are not always exact repeats. Equal values may be shown once. Read-outs that look alike come from different tables or passages of the source. One block for each compound: values may come before it.

Key:
[1] = biological target: T1, human OCT2 (Homo sapiens, UniProt O15244); experiment: Inhibition of [14C]-metformin uptake in HEK-OCT2 cells; type: cell-based; conditions: for inhibition at 10 x Cmax,u: human, HEK293-Flp-In cells stably expressing human OCT2 (HEK-OCT2), probe [14C]-metformin 10 µM
T1 sequence (O15244 1-555): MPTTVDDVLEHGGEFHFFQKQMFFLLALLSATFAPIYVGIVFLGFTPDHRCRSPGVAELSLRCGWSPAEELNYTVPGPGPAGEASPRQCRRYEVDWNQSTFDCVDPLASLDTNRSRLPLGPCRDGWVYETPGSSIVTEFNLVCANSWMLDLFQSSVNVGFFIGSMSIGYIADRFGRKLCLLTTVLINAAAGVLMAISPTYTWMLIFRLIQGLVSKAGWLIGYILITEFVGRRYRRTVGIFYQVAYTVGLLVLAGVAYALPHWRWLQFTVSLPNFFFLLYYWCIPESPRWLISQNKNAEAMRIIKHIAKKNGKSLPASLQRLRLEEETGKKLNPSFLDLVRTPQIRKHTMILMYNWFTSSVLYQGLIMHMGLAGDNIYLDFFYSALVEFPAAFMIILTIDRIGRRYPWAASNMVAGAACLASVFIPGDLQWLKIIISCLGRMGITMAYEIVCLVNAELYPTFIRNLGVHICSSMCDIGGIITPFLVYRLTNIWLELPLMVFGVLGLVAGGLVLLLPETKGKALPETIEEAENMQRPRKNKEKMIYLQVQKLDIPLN

[2] = biological target: T2, human MATE1 (Homo sapiens, UniProt Q96FL8); experiment: Inhibition of [14C]-metformin uptake in HEK-MATE1 cells; type: cell-based; conditions: for inhibition at 10 x Cmax,u: human, probe [14C]-metformin 10 µM
T2 sequence (Q96FL8 1-570): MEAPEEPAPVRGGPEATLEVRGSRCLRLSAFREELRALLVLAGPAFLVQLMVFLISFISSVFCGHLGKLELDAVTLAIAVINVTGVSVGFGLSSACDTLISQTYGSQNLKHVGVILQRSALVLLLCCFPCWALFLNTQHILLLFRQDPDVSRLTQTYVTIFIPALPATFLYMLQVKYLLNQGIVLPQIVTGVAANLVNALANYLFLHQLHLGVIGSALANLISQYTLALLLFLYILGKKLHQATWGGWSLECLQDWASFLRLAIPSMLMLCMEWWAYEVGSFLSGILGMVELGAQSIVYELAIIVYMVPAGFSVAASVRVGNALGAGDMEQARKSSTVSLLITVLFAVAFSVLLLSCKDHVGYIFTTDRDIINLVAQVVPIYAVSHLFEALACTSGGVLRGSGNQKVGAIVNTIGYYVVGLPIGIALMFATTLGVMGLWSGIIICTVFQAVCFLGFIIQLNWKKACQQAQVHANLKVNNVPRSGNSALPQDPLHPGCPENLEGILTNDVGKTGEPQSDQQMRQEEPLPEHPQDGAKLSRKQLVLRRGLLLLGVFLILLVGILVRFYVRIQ

[3] = biological target: T3, human MATE2K (Homo sapiens, UniProt Q86VL8); experiment: in vitro; conditions: probe [14C]-metformin 10 µM
T3 sequence (Q86VL8 1-566 isoform Q86VL8-3): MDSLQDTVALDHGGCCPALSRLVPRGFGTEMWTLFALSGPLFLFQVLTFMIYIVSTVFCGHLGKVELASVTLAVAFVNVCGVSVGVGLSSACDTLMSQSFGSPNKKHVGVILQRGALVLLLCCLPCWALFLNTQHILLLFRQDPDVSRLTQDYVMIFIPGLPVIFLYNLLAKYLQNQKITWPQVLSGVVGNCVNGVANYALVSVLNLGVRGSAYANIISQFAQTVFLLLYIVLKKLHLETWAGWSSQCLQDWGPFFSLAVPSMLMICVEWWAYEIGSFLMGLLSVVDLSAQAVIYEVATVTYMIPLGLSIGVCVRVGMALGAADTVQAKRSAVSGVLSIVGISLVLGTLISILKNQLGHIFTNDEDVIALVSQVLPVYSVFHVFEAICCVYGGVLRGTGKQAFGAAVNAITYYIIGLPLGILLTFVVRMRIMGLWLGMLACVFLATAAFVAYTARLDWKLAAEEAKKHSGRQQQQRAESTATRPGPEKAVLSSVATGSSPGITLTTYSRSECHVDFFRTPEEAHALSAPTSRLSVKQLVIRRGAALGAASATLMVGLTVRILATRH

[4] = biological target: T4, human PMAT (Homo sapiens, UniProt Q7RTT9); experiment: Inhibition of [14C]-metformin uptake in MDCK-PMAT cells; type: cell-based
T4 sequence (Q7RTT9 1-530): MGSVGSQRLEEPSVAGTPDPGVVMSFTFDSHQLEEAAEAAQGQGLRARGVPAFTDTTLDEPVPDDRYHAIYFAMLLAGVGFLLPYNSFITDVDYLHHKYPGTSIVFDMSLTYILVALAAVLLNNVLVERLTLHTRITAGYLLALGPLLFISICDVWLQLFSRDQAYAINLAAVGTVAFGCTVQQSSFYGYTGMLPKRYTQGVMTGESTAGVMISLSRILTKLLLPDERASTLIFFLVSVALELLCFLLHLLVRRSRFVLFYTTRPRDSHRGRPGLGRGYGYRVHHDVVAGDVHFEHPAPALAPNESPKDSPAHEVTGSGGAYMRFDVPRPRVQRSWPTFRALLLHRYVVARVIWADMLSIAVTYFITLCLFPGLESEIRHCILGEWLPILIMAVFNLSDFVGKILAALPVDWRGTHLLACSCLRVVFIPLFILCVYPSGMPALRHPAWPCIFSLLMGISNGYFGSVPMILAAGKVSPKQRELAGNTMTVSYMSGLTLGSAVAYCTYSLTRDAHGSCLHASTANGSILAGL

[5] = biological target: T5, human OCT1 (Homo sapiens, UniProt O15245); conditions: OCT1-mediated, inhibitor at 10x Cmax,u
T5 sequence (O15245 1-554): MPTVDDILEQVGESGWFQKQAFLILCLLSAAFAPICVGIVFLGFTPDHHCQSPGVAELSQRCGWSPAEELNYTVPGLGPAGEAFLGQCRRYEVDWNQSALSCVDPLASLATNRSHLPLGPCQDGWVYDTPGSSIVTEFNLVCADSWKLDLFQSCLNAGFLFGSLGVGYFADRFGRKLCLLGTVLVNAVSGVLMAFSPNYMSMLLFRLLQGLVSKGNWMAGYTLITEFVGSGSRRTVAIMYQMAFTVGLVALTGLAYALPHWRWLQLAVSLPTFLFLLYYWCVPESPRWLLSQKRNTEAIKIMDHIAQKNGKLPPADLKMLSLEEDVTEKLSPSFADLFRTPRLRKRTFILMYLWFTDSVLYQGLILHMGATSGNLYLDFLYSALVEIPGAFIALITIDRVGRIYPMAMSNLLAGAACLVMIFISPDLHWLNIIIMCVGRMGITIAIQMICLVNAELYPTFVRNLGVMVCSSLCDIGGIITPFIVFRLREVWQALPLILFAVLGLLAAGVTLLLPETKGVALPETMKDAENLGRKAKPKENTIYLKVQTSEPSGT

[6] = biological target: T5, human OCT1; experiment: cell-based
[7] = biological target: T6, human OCT3 (Homo sapiens, UniProt O75751); experiment: Inhibition of [14C]-metformin uptake in HEK-OCT3 cells; type: cell-based; conditions: for metformin uptake (remaining): OCT3-mediated, inhibitor at 10x Cmax,u
T6 sequence (O75751 1-556): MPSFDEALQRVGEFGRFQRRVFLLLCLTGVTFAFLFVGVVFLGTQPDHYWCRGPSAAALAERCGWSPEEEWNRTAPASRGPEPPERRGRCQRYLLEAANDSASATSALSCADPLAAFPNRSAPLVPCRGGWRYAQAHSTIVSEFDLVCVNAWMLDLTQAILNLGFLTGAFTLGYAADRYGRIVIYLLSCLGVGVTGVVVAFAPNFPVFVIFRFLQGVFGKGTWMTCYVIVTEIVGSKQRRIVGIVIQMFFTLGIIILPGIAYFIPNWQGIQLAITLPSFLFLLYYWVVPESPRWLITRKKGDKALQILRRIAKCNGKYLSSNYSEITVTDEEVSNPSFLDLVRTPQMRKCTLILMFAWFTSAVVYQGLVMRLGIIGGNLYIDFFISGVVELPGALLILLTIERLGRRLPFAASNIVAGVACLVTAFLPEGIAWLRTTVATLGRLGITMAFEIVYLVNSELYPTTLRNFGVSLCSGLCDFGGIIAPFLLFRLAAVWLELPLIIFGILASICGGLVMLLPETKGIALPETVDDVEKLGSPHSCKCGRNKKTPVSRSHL

[8] = biological target: T3, human MATE2K; experiment: cell-based; conditions: IC50, [14C]-metformin 10 μM uptake, HEK-MATE2K
[9] = human plasma; cited from earlier work
[10] = type: in vivo, human
[11] = metformin 850 mg oral alone
[12] = metformin alone; OGTT 75 g 2 hours after dosing; p>0.1 vs pre-metformin
[13] = clinical; conditions: human, po, 850 mg

Compound: Cc1nccn1CC1CCc2c(c3ccccc3n2C)C1=O (stereo not drawn) [ondansetron]
IC50 [4]: > 1.32 µM
metformin uptake (remaining) [5]: > 50%
IC50 [6]: > 1.32 µM
IC50 [7]: > 1.32 µM
metformin uptake (remaining) [7]: > 50%
inhibition at 10 x Cmax,u [2]: ≥ 50%
inhibition at 10 x Cmax,u [3]: ≥ 50%

Compound: CCN(CC)CCNC(=O)c1ccc(N)cc1 [procainamide]
inhibition at 10 x Cmax,u [1]: ≥ 50%
inhibition at 10 x Cmax,u [3]: ≥ 50%

Compound: C=CCN1CC[C@]23c4c5ccc(O)c4O[C@H]2C(=O)CC[C@@]3(O)[C@H]1C5 [naloxone]
inhibition at 10 x Cmax,u [1]: ≥ 50%

Compound: CC(=O)OCC(CCn1cnc2cnc(N)nc21)COC(C)=O [famciclovir]
inhibition at 10 x Cmax,u [3]: ≥ 50%

Compound: CCn1cc(C(=O)O)c(=O)c2cc(F)c(N3CCNCC3)cc21 [norfloxacin]
IC50 [4]: > 160 µM
IC50 [8]: 4.74 µM
metformin uptake (remaining) [5]: > 50%
IC50 [6]: > 160 µM
IC50 [1]: > 160 µM
IC50 [7]: > 160 µM
metformin uptake (remaining) [7]: > 50%
IC50 [2]: 19.9 µM
inhibition at 10 x Cmax,u [2]: ≥ 50%
inhibition at 10 x Cmax,u [3]: ≥ 50%

Compound: CN(C)C(=N)N=C(N)N [Metformin, metformin]
CL/F [11]: 1360 ± 440 mL/min
V/F [11]: 577 ± 179 L
Amount in urine0–24 ([11]; 11 subjects): 437 ± 86 mg
glucose AUC after OGTT [12]: 3100 ± 121 mg·h/L
CL renal ([13]; plasma and urine): 736 ± 204 mL/min
AUC(0-inf) ([13]; plasma): 11400 ± 3300 ng·h/mL
AUC(0-t) ([13]; plasma): 11000 ± 3100 ng·h/mL
Cmax ([13]; plasma): 1810 ± 600 ng/mL
Tmax ([13]; plasma): 2.46 ± 0.66 h

Compound: CNC(=C[N+](=O)[O-])NCCSCc1ccc(CN(C)C)o1 [ranitidine]
IC50 [4]: > 214 µM
IC50 [8]: 4.63 µM
metformin uptake (remaining) [5]: > 50%
IC50 [6]: 26.8 µM
IC50 [1]: 15.7 µM
IC50 [7]: 93.5 µM
metformin uptake (remaining) [7]: > 50%
inhibition at 10 x Cmax,u [2]: ≥ 50%
inhibition at 10 x Cmax,u [3]: ≥ 50%

Second part, led by results:

inhibition at 10 x Cmax,u [1]: ≥ 50%
inhibition at 10 x Cmax,u [2]: ≥ 50%
inhibition at 10 x Cmax,u [3]: ≥ 50%
Compound: C=C[C@H]1C[N@@]2CC[C@H]1C[C@H]2[C@H](O)c1ccnc2ccc(OC)cc12 [quinine]

inhibition at 10 x Cmax,u [2]: ≥ 50%
Compound: CC(C)/N=c1\cc2n(-c3ccc(Cl)cc3)c3ccccc3nc-2cc1Nc1ccc(Cl)cc1 [clofazimine]

inhibition at 10 x Cmax,u [2]: ≥ 50%
inhibition at 10 x Cmax,u [3]: ≥ 50%
Compound: CN/C(=N/CCSCc1nc[nH]c1C)NC#N [cimetidine]

IC50 [4]: > 151 µM
IC50 [8]: 1.19 µM
IC50 [6]: 47 µM
IC50 [1]: > 151 µM
IC50 [7]: > 151 µM
IC50 [2]: 5.12 µM
inhibition at 10 x Cmax,u [2]: ≥ 50%
inhibition at 10 x Cmax,u [3]: ≥ 50%
Compound: COc1c(N2C[C@@H]3CCCN[C@@H]3C2)c(F)cc2c(=O)c(C(=O)O)cn(C3CC3)c12 [moxifloxacin]

inhibition at 10 x Cmax,u [2]: ≥ 50%
Compound: Nc1nc(NC2CC2)c2ncn([C@H]3C=C[C@@H](CO)C3)c2n1 [abacavir]

inhibition at 10 x Cmax,u [2]: ≥ 50%
inhibition at 10 x Cmax,u [3]: ≥ 50%
Compound: COc1cc(Cc2cnc(N)nc2N)cc(OC)c1OC [trimethoprim]

IC50 [4]: > 115 µM
IC50 [8]: 7.8 µM and 7.81 µM
metformin uptake (remaining) [5]: > 50%
IC50 [6]: > 115 µM
IC50 [1]: > 115 µM
half-life ([10]; human, plasma, oral): ~3 h
Cmax ([10]; human, plasma, po, 600 mg): 4200 ng/mL and 12.7 µM
calculated Cmax,u ([10]; nizatidine 600 mg oral, calculated with 35% protein binding): 2.7 ± 0.2 μg/mL and 8.2 μM
IC50 [7]: 41.1 µM
metformin uptake (remaining) [7]: > 50%
IC50 [2]: 52.7 µM
inhibition at 10 x Cmax,u [3]: ≥ 50%
Compound: CNC(=C[N+](=O)[O-])NCCSCc1csc(CN(C)C)n1 [nizatidine]
protein binding [9]: 35%
